Where two headings read alike, the source gives them in different places.

A word on the Kd: it is a measure of binding affinity in units of concentration.

In one assay the target is 5FW-BPTF bromodomain (Homo sapiens, UniProt Q12830). Nature of the assay: SPR, 5FW-labeled His9-BPTF on NTA chip, steady-state. The class given is binding.
In assay [1] the test system is BPTF. Conditions: ITC, cited from earlier work. Background: In ITC the heat of successive injections is recorded.
Assay [2] deals with BPTF. Conditions: prior lead inhibitor; cited from earlier work.
The target in assay [3] is 5FW-BPTF bromodomain (His9-tagged, 5-fluorotryptophan-labelled). Nature of the assay: NMR titration.

For the compound `CN(C)CCCOc1ccc(-c2cc(NCCCn3cccn3)nc(S(C)(=O)=O)n2)cc1` [compound 2, TP-238], the equilibrium dissociation constant (Kd) at 5FW-BPTF bromodomain is 250 ± 20 nM; at BPTF [1] (read-out: Reported BPTF Kd, unlabeled BPTF, thesgc.org), 120 nM. In addition, in the assay on BPTF [1] (BPTF vs CECR2), the “fold weaker affinity for BPTF over CECR2” value was 10 fold. As for `COC(=O)c1cccc(NC(=O)NC2CCN(c3ccnc(Nc4ccc(F)cc4)n3)C2)c1` (centres unmarked) [AU1], the Kd at BPTF [2] is 2800 nM. Regarding “Histone variant H2AZ.1 K4ac,K11ac peptide”, in assay [3], the Kd is 720000 nM.

Source of the values: PMC7393680 (Organic & biomolecular chemistry, 2020).
